Assay results published in US20070276141A1, “Preparation of Pharmaceutical Salts of [1,4] - Bipiperidine” (priority 2003, published 2007).

Assay: Relative stability of solid forms
Assay type: physicochemical
Conditions: test conditions not given

Cc1ccc(S(=O)(=O)NC(=O)N2CCC(N3CCC(Oc4ccc(Cl)c(Cl)c4)CC3)CC2)cc1 [Hydrate Form A, N-[[4-(3,4-dichlorophenoxy)[1,4′-bipiperidin]-1′-yl]carbonyl]-4-methyl-benzenesulfonamide]
stability compared with other solid forms of the sodium salt: more stable than Hydrate Forms B and D and Solvated Form E
